Each structure is given as a SMILES string. “Also recorded” adds a separate entry of the source.

Results on 1 compound are retold here after patent US20210196714A1, “COMPOSITIONS AND METHODS FOR TREATING DISORDERS CHARACTERIZED WITH ABERRANT RAS/MAPK SIGNALING” (Duke University, priority 2018, published 2021).

The nature of data set [1]: Toxicity test in zebrafish embryos. The data set is classed as in vivo. To be noted: zebrafish, in vivo; read-out: LC50 (lethal concentration required to kill 50% of the population). The protocol:
(§1) FIG. 1: In vivo screen using BRAF/MEK/ERK inhibitors. (a) Flow chart of the experimental design. […] For the primary screen, 24 compounds were assessed for their ability to rescue the convergent-extension (CE) phenotype of zebrafish kmt2d morphants, followed by rescue tests of additional phenotypes (jaw and brain) within the kmt2d morphant, or CE of additional genetic KS models. (b) Toxicity results. Twenty embryos at the 8-cell stage were incubated in egg water containing 100 nM, 1 μM, and 10 μM of the 26 compounds. After 24 hours, larvae were scored for toxicity. Black bar: death; grey bar: abnormal morphology; white bar: nontoxic. (c) Embryos were injected with kmt2d-MO at the 2-4 cell stage and soaked in egg water containing 100 nM of each compound at the 8-cell stage. After 24 hours, larvae were scored for CE. […] The efficacy of each compound was determined by a chi-square test in which Class I and Class II were considered together.
(§2) To guard against possible bias, the tool and negative control compounds were interspersed across the experiment and the zebrafish phenotyping team was blinded to the identity of each compound. Typical of small molecule storage, each of the 29 compounds was dissolved in dimethyl sulfoxide (DMSO). […] Next, each compound was diluted serially with egg water and toxicity tested by assaying the percentage of abnormal or dead embryos across three different concentrations (10 μM, 1 μM, 100 nM; FIG. 1B).

A further data set relates to zebrafish embryos. Description: Toxicity test in zebrafish embryos. The data set is classed as in vivo. The protocol: as §1, §2
In data set [2] the test system is kmt2d+/−×kmt2d+/− progeny. Description: Brain cell proliferation in stable kmt2d mutant intercross progeny. The data set is classed as in vivo, zebrafish. To be noted: 100 mM dmDf, 2 dpf. An excerpt:
(§3) FIG. 12: Treatment with dmDf rescues the defects of stable kmt2d mutant. kmt2d+/− adults were in-crossed and the embryos were then collected at 1 dpf, 2 dpf and 5 dpf to assess dmDf efficacy. […] Error bars show SEM (standard error of the mean).
(§4) Although the small molecule testing data in CRISPR F0 mosaic models are consistent with morphant phenotypes (and rescue), experiments recognized the necessity of testing the potential efficacy of dmDf in a stable genetic model that is a better genotypic proxy to human patients. […] In addition to examining proliferation of cells in the brain, experiments assessed whether neural differentiation is affected (see, Van Laarhoven, P. M. et al. Hum Mol Genet 24, 4443-53 (2015)).
(§5) For convergence and extension (CE) phenotyping, embryos were scored as described (see, Leitch, C. C. et al. Nat Genet 40, 443-8 (2008)) at the 8-10 somite stage, and images were captured using an AZ100 microscope and NIS Elements software (Nikon). […] The distance between Meckel's (MK) and ceratohyal (CH) cartilages was measured on ventral bright field images with Image J (NIH). […] Fluorescence signal on embryo heads was imaged with the Nikon AZ100 microscope and DS-Qi1MC digital camera using […] Z-stacks to generate extended depth of focus images. Cell numbers were quantified using the ImageJ ICTN plugin (NIH). […]

The next data set has as its system kmt2d-CRISPR embryos. Nature of the data set: Brain cell proliferation (pHH3 immunostaining) in kmt2d-mosaic mutants. The class given is in vivo, zebrafish. To be noted: 100 nM, 2 dpf, listed as dmDf.
Source text: Intellectual disability represents a major phenotype in KS, with some studies reporting almost 90% of patients to be affected (see, Wessels, M. W., et al. Clin Dysmorphol 11, 95-102 (2002)). […] Previous studies have shown that defects in proliferation in the developing zebrafish brain can be a proxy for neurodevelopmental and neurocognitive traits, especially in the context of microcephaly (see, Borck, G. et al. Genome Res 25, 609 (2015); Brooks, S. S. et al. Genetics 198, 723-33 (2014); O'Rawe, J. A. et al. Am J Hum Genet 97, 922-32 (2015); Wortmann, S. B. et al. Am J Hum Genet 96, 245-57 (2015)), a phenotype reported commonly in KS (see, Matsumoto, N. & Niikawa, N. Am J Med Genet C Semin Med Genet 117C, 57-65 (2003)).
as §5

Data set [3] relates to kmt2d+/−×kmt2d+/− progeny. Description: CE defect in stable kmt2d mutant intercross progeny. The data set is classed as in vivo, zebrafish. To be noted: 100 mM dmDf, 1 dpf.
Source text: as §3, §4, §5

In data set [4] the test system is kmt2d+/−×kmt2d+/− progeny. Description: Neural differentiation (sox2/huc staining) in stable kmt2d mutant. The data set is classed as in vivo, zebrafish. To be noted: 100 mM dmDf, 2 dpf.
Source text: as §3, §4, §5

`CC(C)c1nc(-c2cccc(NS(=O)(=O)c3c(F)cccc3F)c2F)c(-c2ccnc(N)n2)s1` [Compound 8, desmethyl-Dabrafenib]: in data set [1], the LC50 at 24 h fell in the range of 1 to 10 µM. For the same compound, in the data set on zebrafish embryos (100 nM or 500 nM), the “toxicity at the concentrations used for pMEK test” value is recorded as “lack of toxicity”. In addition, the “toxicity: pathology (abnormal or dead embryos)” value in the data set with zebrafish embryos (100 nM, 24 hours) is listed as “safe”. The “LC50 relative to effective in vivo exposure (greater by)” value in the data set with zebrafish embryos (LC50 vs 0.26 nM exposure) was “four”. Besides, the “overt pathologies in zebrafish embryos” value with zebrafish embryos (zebrafish, in vivo) is listed as “induced no overt pathologies”. Besides, the “number of proliferating cells in the brain” value in data set [2] is listed as “increases significantly; also recorded: rescued”. Further, the “total number of proliferating (pHH3+) cells in brain” value with kmt2d-CRISPR embryos is “can be rescued; also recorded: restored the total number of proliferating cells to wild type levels”. For the same compound, the CE defect result in data set [3] was “ameliorates significantly”. In data set [3] (p<0.001), the “embryos showing Class I or Class II CE defects” value is on record as 20%. For the same compound, the “perturbed differentiation (organization of sox2+ and huc+ cells)” value in data set [4] is “appears to ameliorate; also recorded: attenuated this pathology”.
